The results in this text go back to patent US12227495B2, “Herbicidal compounds” (SYNGENTA CROP PROTECTION AG, priority 2018, dated 2025).

What all share (type): in vivo
Experiment [1] has as its system Ipomoea hederacea (IPOHE). The experiment can be described thus: Post-emergence herbicide test, glasshouse, percentage damage. Particulars: 1000 g/ha, evaluated after 13 days. The method, boiled down: (§1)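 Pot-grown plants were sprayed at 500 g/ha unless otherwise stated, in acetone/water (50:50) with 0.5% Tween 20. Pre-emergence spraying was 1 day after sowing and post-emergence after 8 days, in a glasshouse at 24/16° C, 14 h light, 65% humidity. Percentage damage was scored 13 days later on a 1–5 scale (5=81-100%).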

The subject of experiment [2] is Setaria faberi (SETFA). Described as above. Particulars: 1000 g/ha, evaluated after 13 days. The procedure, abridged: as §1
The subject of experiment [3] is Solanum nigrum (SOLNI). The description is as above. Particulars: 1000 g/ha, evaluated after 13 days. The procedure, abridged: as §1
For experiment [4], the system named is Echinochloa crus-galli (ECHCG). Described as above. The following applies: 1000 g/ha, evaluated after 13 days. The procedure, abridged: as §1
The subject of experiment [5] is Lolium perenne (LOLPE). Described as above. Particulars: 1000 g/ha, evaluated after 13 days. The procedure, abridged:
as §1

For experiment [6], the system named is Amaranthus retoflexus (AMARE). The description is as above. The following applies: 1000 g/ha, evaluated after 13 days. The procedure, abridged:
as §1

The subject of experiment [7] is Ipomoea hederacea (IPOHE). The experiment can be described thus: Pre-emergence herbicide test, glasshouse, percentage damage. The following applies: rate 1000 g/ha, evaluated after 13 days. The procedure, abridged:
as §1

In experiment [8] the test system is Setaria faberi (SETFA). The experiment is described as above. The following applies: rate 1000 g/ha, evaluated after 13 days. The method, boiled down:
as §1

For experiment [9], the system named is Solanum nigrum (SOLNI). The experiment is described as above. The following applies: rate 1000 g/ha, evaluated after 13 days. The method, boiled down:
as §1

For experiment [10], the system named is Echinochloa crus-galli (ECHCG). The experiment is described as above. Particulars: rate 1000 g/ha, evaluated after 13 days. The method, boiled down:
as §1

In experiment [11] the test system is Lolium perenne (LOLPE). The description is as above. Particulars: rate 1000 g/ha, evaluated after 13 days. The method, boiled down: as §1
The subject of experiment [12] is Amaranthus retoflexus (AMARE). The experiment is described as above. The following applies: rate 1000 g/ha, evaluated after 13 days. The method, boiled down:
as §1

With `Fc1cc(Cl)cnc1Oc1cccc(F)c1-c1ncc(C(F)F)o1` [Compound A35], the “percentage damage caused to the plant, IPOHE” value in [1] is 2 (2=21-40%). Further, in experiment [2], the “percentage damage caused to the plant, SETFA” value is 4 (4=61-80%). The “percentage damage caused to the plant, SOLNI” value in experiment [3] is 5 (5=81-100%). In addition, the “percentage damage caused to the plant, ECHCG” value in [4] is on record as 1 (1=0-20%). In experiment [5], the “percentage damage caused to the plant, LOLPE” value is given as 1 (1=0-20%). For the same compound, the “percentage damage caused to the plant, AMARE” value in [6] was 5 (5=81-100%). Moreover, the “Pre-emergence Test IPOHE percentage damage (five point scale)” value in experiment [7] is reported as 1 (1=0-20%). Also, in [8], the “Pre-emergence Test SETFA percentage damage (five point scale)” value is given as 5 (5=81-100%). In addition, the “Pre-emergence Test SOLNI percentage damage (five point scale)” value in experiment [9] is 5 (5=81-100%). Besides, the “Pre-emergence Test ECHCG percentage damage (five point scale)” value in experiment [10] was 5 (5=81-100%). Also, the “Pre-emergence Test LOLPE percentage damage (five point scale)” value in experiment [11] is 1 (1=0-20%). Further, the “Pre-emergence Test AMARE percentage damage (five point scale)” value in [12] is 3 (3=41-60%).

Turning to `COc1cccc(Oc2ncc(Cl)cc2F)c1-n1cc(C(F)(F)F)cn1` [Compound A36, 5-chloro-3-fluoro-2-[3-methoxy-2-[4-(trifluoromethyl)pyrazol-1-yl]phenoxy]pyridine], in experiment [1], the “percentage damage caused to the plant, IPOHE” value is recorded as 2 (2=21-40%). For the same compound, the “percentage damage caused to the plant, SETFA” value in experiment [2] is given as 5 (5=81-100%). Besides, the “percentage damage caused to the plant, SOLNI” value in [3] is reported as 5 (5=81-100%). The “percentage damage caused to the plant, ECHCG” value in experiment [4] was 4 (4=61-80%). Also, the “percentage damage caused to the plant, LOLPE” value in [5] is recorded as 4 (4=61-80%). Further, the “percentage damage caused to the plant, AMARE” value in experiment [6] is 5 (5=81-100%). Besides, the “Pre-emergence Test IPOHE percentage damage (five point scale)” value in experiment [7] is recorded as 5 (5=81-100%). Besides, the “Pre-emergence Test SETFA percentage damage (five point scale)” value in [8] is on record as 5 (5=81-100%). The “Pre-emergence Test SOLNI percentage damage (five point scale)” value in experiment [9] is on record as 5 (5=81-100%). For the same compound, in experiment [10], the “Pre-emergence Test ECHCG percentage damage (five point scale)” value was 5 (5=81-100%). Besides, in experiment [11], the “Pre-emergence Test LOLPE percentage damage (five point scale)” value was 3 (3=41-60%). Further, the “Pre-emergence Test AMARE percentage damage (five point scale)” value in [12] is 5 (5=81-100%).

In the case of `N#Cc1cc(Cl)cnc1Oc1cccc(F)c1-c1cc(C(F)F)no1` [Compound A37], the “percentage damage caused to the plant, IPOHE” value in experiment [1] is recorded as 5 (5=81-100%). In addition, the “percentage damage caused to the plant, SETFA” value in experiment [2] was 5 (5=81-100%). The “percentage damage caused to the plant, SOLNI” value in experiment [3] was 5 (5=81-100%). In [4], the “percentage damage caused to the plant, ECHCG” value is given as 4 (4=61-80%). The “percentage damage caused to the plant, LOLPE” value in experiment [5] is given as 4 (4=61-80%). In addition, the “percentage damage caused to the plant, AMARE” value in experiment [6] is given as 5 (5=81-100%). Also, the “Pre-emergence Test IPOHE percentage damage (five point scale)” value in [7] was 5 (5=81-100%). Besides, the “Pre-emergence Test SETFA percentage damage (five point scale)” value in experiment [8] is recorded as 5 (5=81-100%). Also, in [9], the “Pre-emergence Test SOLNI percentage damage (five point scale)” value was 5 (5=81-100%). Further, the “Pre-emergence Test ECHCG percentage damage (five point scale)” value in experiment [10] was 5 (5=81-100%). Besides, the “Pre-emergence Test LOLPE percentage damage (five point scale)” value in [11] is given as 5 (5=81-100%). Further, in experiment [12], the “Pre-emergence Test AMARE percentage damage (five point scale)” value was 5 (5=81-100%).

As to `O=[N+]([O-])c1cc(Cl)cnc1Oc1cccc(F)c1-c1cc(C(F)F)no1` [Compound A38], the “percentage damage caused to the plant, IPOHE” value in [1] is reported as 1 (1=0-20%). In experiment [2], the “percentage damage caused to the plant, SETFA” value is given as 1 (1=0-20%). The “percentage damage caused to the plant, SOLNI” value in experiment [3] is given as 5 (5=81-100%). Moreover, in experiment [4], the “percentage damage caused to the plant, ECHCG” value was 1 (1=0-20%). For the same compound, in [5], the “percentage damage caused to the plant, LOLPE” value is recorded as 1 (1=0-20%). Also, the “percentage damage caused to the plant, AMARE” value in experiment [6] is reported as 5 (5=81-100%). The “Pre-emergence Test IPOHE percentage damage (five point scale)” value in experiment [7] is 1 (1=0-20%). In addition, in experiment [8], the “Pre-emergence Test SETFA percentage damage (five point scale)” value is listed as 1 (1=0-20%). The “Pre-emergence Test SOLNI percentage damage (five point scale)” value in experiment [9] is 1 (1=0-20%). Also, the “Pre-emergence Test ECHCG percentage damage (five point scale)” value in [10] is on record as 1 (1=0-20%). In experiment [11], the “Pre-emergence Test LOLPE percentage damage (five point scale)” value is reported as 1 (1=0-20%). The “Pre-emergence Test AMARE percentage damage (five point scale)” value in experiment [12] was 4 (4=61-80%).

In the case of `CS(=O)(=O)c1cnc(Oc2cccc(F)c2-c2cc(C(F)F)no2)c(F)c1` [Compound A39], in [1], the “percentage damage caused to the plant, IPOHE” value is 1 (1=0-20%). Further, the “percentage damage caused to the plant, SETFA” value in experiment [2] was 1 (1=0-20%). Besides, the “percentage damage caused to the plant, SOLNI” value in [3] is given as 3 (3=41-60%). Besides, the “percentage damage caused to the plant, ECHCG” value in experiment [4] is listed as 1 (1=0-20%). In addition, the “percentage damage caused to the plant, LOLPE” value in [5] is 1 (1=0-20%). In addition, the “percentage damage caused to the plant, AMARE” value in experiment [6] is 3 (3=41-60%). Further, in experiment [7], the “Pre-emergence Test IPOHE percentage damage (five point scale)” value was 1 (1=0-20%). The “Pre-emergence Test SETFA percentage damage (five point scale)” value in experiment [8] was 1 (1=0-20%). Also, the “Pre-emergence Test SOLNI percentage damage (five point scale)” value in [9] is listed as 1 (1=0-20%). Further, in [10], the “Pre-emergence Test ECHCG percentage damage (five point scale)” value is on record as 1 (1=0-20%). Besides, the “Pre-emergence Test LOLPE percentage damage (five point scale)” value in experiment [11] is reported as 1 (1=0-20%). The “Pre-emergence Test AMARE percentage damage (five point scale)” value in [12] is 5 (5=81-100%).
